Laboratory results: patent US20260109699A1, “AZOLE DERIVATIVES AS SHP2 INHIBITORS” (IRBM S.P.A., priority 2022, published 2026)

How the values were obtained:
[1] = biological target: T1, recombinant SHP2 protein (AviTag-G4SG4S-SHP2(1-525)) (Homo sapiens, UniProt Q06124); test: Binding kinetic assay by surface plasmon resonance (SPR); conditions: for Residence time 1/koff SPR: 1/koff from SPR; for koff: Biacore T200, single cycle kinetic, 25° C, 1:1 Langmuir model
T1 construct: recombinant SHP2 protein (AviTag-G4SG4S-SHP2(1-525)); purchased VIVA Biotech Ltd (custom production)
T1 sequence (Q06124 1-525): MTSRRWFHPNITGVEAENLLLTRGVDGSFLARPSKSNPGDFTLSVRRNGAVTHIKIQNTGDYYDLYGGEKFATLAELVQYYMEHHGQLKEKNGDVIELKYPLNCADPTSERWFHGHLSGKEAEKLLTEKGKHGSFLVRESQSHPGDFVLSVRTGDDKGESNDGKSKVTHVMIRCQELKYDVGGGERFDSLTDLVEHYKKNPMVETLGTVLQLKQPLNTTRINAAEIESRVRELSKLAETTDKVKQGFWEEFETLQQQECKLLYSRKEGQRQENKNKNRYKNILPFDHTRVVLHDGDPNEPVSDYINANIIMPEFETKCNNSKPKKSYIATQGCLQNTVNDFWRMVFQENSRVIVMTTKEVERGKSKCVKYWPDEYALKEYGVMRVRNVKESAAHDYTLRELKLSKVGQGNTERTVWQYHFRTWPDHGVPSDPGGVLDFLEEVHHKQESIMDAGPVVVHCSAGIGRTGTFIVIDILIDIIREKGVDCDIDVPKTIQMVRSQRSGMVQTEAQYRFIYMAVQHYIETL
Description: A N-term biotinylated recombinant SHP2 protein (AviTag-G4SG4S-SHP2(1-525)) was custom produced by VIVA Biotech Ltd. Binding kinetic rate constants were measured by SPR, using a Biacore T200 instrument. The recombinant SHP2 protein was diluted at […] in HBS-P+ buffer, then captured on a series S streptavidin sensor chip up to 5000 RU. Binding of compounds was assessed by a single cycle kinetic procedure (SCK): compounds were diluted in HBS-EP+ supplemented with 20% DMSO (from 300 to 3.7 nM, 3 fold dilution), injected for 120 s over the ligand, then dissociation rate measured for 3600 s, at […] and 25° C. Sensorgrams were analysed by Biacore T200 evaluation software: binding rate constants (kon, koff) and affinity (KD) were calculated by curve filling according to a 1:1 Langmuir model. Each molecule was tested in triplicate on separate flow channels.

[2] = biological target: T2, SHP-2 enzyme (Met1-Leu525), SHP2wt (Homo sapiens, UniProt Q06124); test: SHP2 inhibition enzymatic assay; assay type: biochemical; conditions: 0.5 nM SHP-2 activated by 500 nM IRS1 peptide, 75 μM DiFMUP substrate
T2 construct: synthetized by Origene, Met1-Leu525, cat #TP750155; purchased Origene TP750155
T2 sequence (Q06124 1-525): T1 sequence (Q06124 1-525)
How it was run: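 Human SHP2 (Met1-Leu525, 0.5 nM) activated by 500 nM bis-phosphorylated IRS1 peptide, pre-incubated 30 min with compound, then 75 μM DiFMUP for 30 min at rt in HEPES pH 7.2, NaCl/KCl, EDTA, Tween-20, 5 mM DTT. Reaction quenched with bpV, fluorescence read; IC50 by four-parameter logistic fit.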

[3] = Determination of brain penetration in SD rats; assay type: in vivo; conditions: Sprague-Dawley (SD), rat; male SD rats, IV 0.2 mg/kg, unbound brain to plasma ratio at 8 h; read-out: Kpuu, brain
Description: Total brain levels, expressed as brain/plasma ratio (Kp,brain) were measured by Cbrain@8h/Cplasma@8h in SD rats after IV administration (see Pharmaceutical Research, Vol. 25, No. 8, August 2008 DOI: 10.1007/s11095-007-9502-2; Pharmaceutical Research (2022) 39:1321-1341 https://doi.org/10.1007/s11095-022-03246-6). Unbound fraction of each molecule in biological matrix was determined by in vitro plasma and brain binding assay. Kpuu, brain was calculated by the following equation: […]
In vitro plasma and brain binding assay was carried out on a RED (Rapid Equilibrium Dialysis) device. Unbound fraction (fu) of each molecule in the brain homogenate and plasma were calculated by the ratio of the buffer side response to the brain homogenate/plasma side response. An IV study design was used as the in vivo screening model to identify brain penetration of each molecule. Male naïve SD rats (n=3) were intravenously dosed with each molecule at 0.2 mg/kg in DMSO/Propylene Glycol/Water, 20:60:20 (v/v/v). At 0.083, 0.25, 0.5, 1, 2, 4, and 8 h post-dose plasma samples were collected via tail vein and brain tissue was harvested at the 8 h time point and homogenized in 3× volume of water. All samples were stored at ˜−80° C. prior to LC/MS/MS analysis. At the 8 h time point, the unbound brain to plasma ratios were generated to identify molecules with Kpuu, brain values>0.3 which is indicative of good passive brain penetration.

[4] = system: phospho-ERK1/2 (Thr202/Tyr204); test: Phospho-ERK cellular assay; assay type: cell-based; conditions: Homo sapiens; KYSE-520 cells, 2 h at 37° C, TR-FRET; read-out: pERK IC50
How it was run: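 KYSE-520 cells treated overnight-after-plating with serially diluted compounds for 2 h at 37° C, then lysed. Phospho-ERK1/2 measured by TR-FRET after overnight antibody incubation at rt; inhibition normalized between DMSO (0%) and no-cell (100%) wells, IC50 from four-parameter logistic fit.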

| Compound | Residence time 1/koff SPR [1] [s] | koff [1] [s⁻¹] | IC50 [2] [nM] | Kp uu at 8 h [3] | IC50 [4] [nM] |
| --- | --- | --- | --- | --- | --- |
| Cc1c(N2CCC3(CC2)Cn2nccc2[C@H]3N)nc(C)n(-c2cccc(Cl)c2Cl)c1=O (single isomer, unassigned) [Example 3] | 8065 | 0.000124 | ≤ 50 | > 0.3 | < 100 |
| N[C@@H]1c2ccnn2CC12CCN(c1cnc(Oc3cccc(Cl)c3Cl)cn1)CC2 [Example 2, (S)-1-(5-(2,3-dichlorophenoxy)pyrazin-2-yl)-4′H,6′H-spiro[piperidine-4,5′-pyrrolo[1,2-b]pyrazol]-4′-amine] | 1944 | 0.000514 | ≤ 50 | > 0.3 | 100 to 500 |
| N[C@@H]1c2ccnn2CC12CCN(c1cnc(Sc3cccc(-n4ccnc4)c3Cl)cn1)CC2 [Example 44, (S)-1-(5-((2-chloro-3-(1H-imidazol-1-yl)phenyl)thio)pyrazin-2-yl)-4′H,6′H-spiro[piperidine-4,5′-pyrrolo[1,2-b]pyrazol]-4′-amine] | 3417 | 0.000293 | ≤ 50 | > 0.3 | < 100 |
| N[C@@H]1c2ccnn2CC12CCN(c1cnc(Sc3cccc(-n4ccnc4C(F)F)c3Cl)cn1)CC2 [Example 82, (S)-1-(5-((2-chloro-3-(2-(difluoromethyl)-1H-imidazol-1-yl)phenyl)thio)pyrazin-2-yl)-4′H,6′H-spiro[piperidine-4,5′-pyrrolo[1,2-b]pyrazol]-4′-amine] |  |  | ≤ 50 |  | < 100 |
| Cn1cc2ccc(Sc3cnc(N4CCC5(CC4)Cn4nccc4[C@H]5N)cn3)c(F)c2n1 [Example 83, (S)-1-(5-((7-fluoro-2-methyl-2H-indazol-6-yl)thio)pyrazin-2-yl)-4′H,6′H-spiro[piperidine-4,5′-pyrrolo[1,2-b]pyrazol]-4′-amine] |  |  | ≤ 50 |  | < 100 |
| Cn1cc2c(Cl)c(Sc3cnc(N4CCC5(CC4)Cn4nccc4[C@H]5N)cn3)ccc2n1 [Example 84, (S)-1-(5-((4-chloro-2-methyl-2H-indazol-5-yl)thio)pyrazin-2-yl)-4′H,6′H-spiro[piperidine-4,5′-pyrrolo[1,2-b]pyrazol]-4′-amine] |  |  | ≤ 50 |  | < 100 |

The remaining lines, values ahead:

| Residence time 1/koff SPR [1] [s] | koff [1] [s⁻¹] | IC50 [2] [nM] | Kp uu at 8 h [3] | IC50 [4] [nM] | Compound |
| --- | --- | --- | --- | --- | --- |
| 90909 | 1.1e-05 | ≤ 50 | > 0.3 | < 100 | N[C@@H]1c2ccnn2CC12CCN(c1cnc(Sc3cccc(-n4cccn4)c3Cl)cn1)CC2 [Example 10, (S)-1-(5-((2-chloro-3-(1H-pyrazol-1-yl)phenyl)thio)pyrazin-2-yl)-4′H,6′H-spiro[piperidine-4,5′-pyrrolo[1,2-b]pyrazol]-4′-amine] |
| 11001 | 9.09e-05 | ≤ 50 | > 0.3 | < 100 | N[C@@H]1c2ccnn2CC12CCN(c1cnc(Sc3ccccc3F)cn1)CC2 [Example 21, (S)-1-(5-((2-fluorophenyl)thio)pyrazin-2-yl)-4′H,6′H-spiro[piperidine-4,5′-pyrrolo[1,2-b]pyrazol]-4′-amine] |
| 53571 | 1.87e-05 | ≤ 50 | < 0.3 | < 100 | Cc1cccc(Sc2cnc(N3CCC4(CC3)Cn3nccc3[C@H]4N)cn2)c1F [Example 36, (S)-1-(5-((2-fluoro-3-methylphenyl)thio)pyrazin-2-yl)-4′H,6′H-spiro[piperidine-4,5′-pyrrolo[1,2-b]pyrazol]-4′-amine] |
| 5474 | 0.000183 | ≤ 50 | > 0.3 | < 100 | N[C@@H]1c2ccnn2CC12CCN(c1cnc(Sc3ccnc4ccccc34)cn1)CC2 [Example 39, (S)-1-(5-(quinolin-4-ylthio)pyrazin-2-yl)-4′H,6′H-spiro[piperidine-4,5′-pyrrolo[1,2-b]pyrazol]-4′-amine] |
| 12664 | 7.9e-05 | ≤ 50 |  | < 100 | Cc1c(F)ccc(Sc2cnc(N3CCC4(CC3)Cn3nccc3[C@H]4N)cn2)c1F [Example 45, (S)-1-(5-((2,4-difluoro-3-methylphenyl)thio)pyrazin-2-yl)-4′H,6′H-spiro[piperidine-4,5′-pyrrolo[1,2-b]pyrazol]-4′-amine] |
